This is an account of results in ChEMBL document CHEMBL1201862, “PubChem BioAssay data set” (2004).

For assay [1], the target named is T1, High affinity choline transporter 1 (Homo sapiens, UniProt Q9GZV3).
T1 sequence (Q9GZV3 whole entry): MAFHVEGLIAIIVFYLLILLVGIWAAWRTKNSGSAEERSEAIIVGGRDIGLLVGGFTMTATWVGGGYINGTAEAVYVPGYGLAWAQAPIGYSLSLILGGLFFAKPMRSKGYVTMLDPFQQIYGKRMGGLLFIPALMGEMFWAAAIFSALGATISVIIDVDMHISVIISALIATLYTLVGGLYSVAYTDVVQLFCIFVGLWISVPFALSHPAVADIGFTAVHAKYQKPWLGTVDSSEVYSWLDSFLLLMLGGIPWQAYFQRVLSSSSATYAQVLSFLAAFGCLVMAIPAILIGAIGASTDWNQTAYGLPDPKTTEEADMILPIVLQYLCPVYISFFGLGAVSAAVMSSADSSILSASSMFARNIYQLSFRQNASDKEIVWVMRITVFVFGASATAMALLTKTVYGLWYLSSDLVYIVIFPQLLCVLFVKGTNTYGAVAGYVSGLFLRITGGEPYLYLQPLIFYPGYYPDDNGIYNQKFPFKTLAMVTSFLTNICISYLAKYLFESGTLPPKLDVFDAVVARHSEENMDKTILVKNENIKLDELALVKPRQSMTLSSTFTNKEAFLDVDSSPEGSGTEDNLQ
As to the kind of experiment: CHT activators, dose response, cell-based, 10-point CRC, membrane potential dye (AID 602376). It counts as functional.

The target in a further assay is Aspartyl aminopeptidase (Plasmodium falciparum 3D7, UniProt Q8I2J3).
Another assay concerns the target Procathepsin L (Homo sapiens, UniProt P07711).
The target in assay [2] is Multidrug resistance protein CDR1 (Candida albicans, UniProt P43071). Nature of the assay: CaCDR1 efflux pump inhibitors in yeast, dose response, S. cerevisiae AD1-8u, singleplex, Cherry Pick1 hits (AID 588606). It counts as functional.
In another assay the test system is NIH3T3. As to the kind of experiment: mammalian cell toxicity in NIH-3T3 fibroblasts, dose response, cytotoxicity control for antifungal resistance reversal project, Alamar Blue, dry powder, set 2 (AID 488911). It counts as functional, cell-based. The conditions noted are these: Mus musculus.
Another assay relates to Candida albicans. Nature of the assay: growth inhibition of azole-resistant C. albicans, dose response, CaCi-8 strain, Alamar Blue, dry powder, set 2 (AID 488909). In kind it is functional, organism-based. In general terms: Alamar Blue is a resazurin reagent that responds to reducing activity.
Assay [3] concerns the target T2, Sentrin-specific protease 6 (Homo sapiens, UniProt Q9GZR1).
T2 sequence (Q9GZR1 whole entry): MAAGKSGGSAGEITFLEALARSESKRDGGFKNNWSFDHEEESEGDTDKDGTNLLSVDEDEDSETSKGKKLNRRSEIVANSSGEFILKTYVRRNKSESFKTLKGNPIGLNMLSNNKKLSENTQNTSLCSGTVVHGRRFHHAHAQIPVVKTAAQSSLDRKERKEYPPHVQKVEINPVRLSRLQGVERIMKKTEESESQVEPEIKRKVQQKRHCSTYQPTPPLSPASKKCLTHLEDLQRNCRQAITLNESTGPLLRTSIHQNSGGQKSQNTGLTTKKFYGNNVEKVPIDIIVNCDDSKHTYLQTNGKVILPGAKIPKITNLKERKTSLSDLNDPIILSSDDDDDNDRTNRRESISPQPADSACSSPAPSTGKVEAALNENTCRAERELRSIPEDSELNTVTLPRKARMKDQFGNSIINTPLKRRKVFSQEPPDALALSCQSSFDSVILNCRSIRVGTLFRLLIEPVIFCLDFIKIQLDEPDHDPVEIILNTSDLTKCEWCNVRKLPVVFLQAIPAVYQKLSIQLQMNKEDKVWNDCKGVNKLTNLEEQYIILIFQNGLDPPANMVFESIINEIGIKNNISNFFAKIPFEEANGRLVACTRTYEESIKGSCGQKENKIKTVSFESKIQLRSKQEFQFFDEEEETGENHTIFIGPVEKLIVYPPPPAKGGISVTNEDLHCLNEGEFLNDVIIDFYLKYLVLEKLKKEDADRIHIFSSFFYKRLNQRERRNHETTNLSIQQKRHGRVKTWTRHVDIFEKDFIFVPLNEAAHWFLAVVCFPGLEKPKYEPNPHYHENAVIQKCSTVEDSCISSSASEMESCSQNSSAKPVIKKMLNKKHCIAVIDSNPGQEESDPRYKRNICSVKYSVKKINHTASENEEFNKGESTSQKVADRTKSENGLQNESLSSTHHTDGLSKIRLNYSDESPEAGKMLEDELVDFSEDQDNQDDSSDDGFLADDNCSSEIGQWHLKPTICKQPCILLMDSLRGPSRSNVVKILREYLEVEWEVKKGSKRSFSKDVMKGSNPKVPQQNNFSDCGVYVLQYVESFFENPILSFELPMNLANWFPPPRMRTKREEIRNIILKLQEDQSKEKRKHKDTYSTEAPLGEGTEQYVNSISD
Nature of the assay: SAR Analysis of small molecule inhibitors of Sentrin-specific protease 6 (SENP6) using a Luminescent assay. [Related pubchem assays (depositor defined):AID2582, AID2599]. In kind it is functional.

In assay [4] the target is T3, Sentrin-specific protease 8 (Homo sapiens, UniProt Q96LD8).
T3 sequence (Q96LD8 whole entry): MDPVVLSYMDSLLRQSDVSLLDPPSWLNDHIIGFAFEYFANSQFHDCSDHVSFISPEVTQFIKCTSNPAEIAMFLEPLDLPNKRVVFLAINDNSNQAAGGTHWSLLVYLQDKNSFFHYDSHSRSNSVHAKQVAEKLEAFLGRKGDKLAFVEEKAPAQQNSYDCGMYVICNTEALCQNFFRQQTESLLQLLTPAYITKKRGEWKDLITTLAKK
Nature of the assay: SENP8 protease inhibitors, SAR follow-up, biochemical, luminescence (AID 504501). In kind it is functional.

In assay [5] the target is T4, Sentrin-specific protease 7 (Homo sapiens, UniProt Q9BQF6).
T4 sequence (Q9BQF6 whole entry): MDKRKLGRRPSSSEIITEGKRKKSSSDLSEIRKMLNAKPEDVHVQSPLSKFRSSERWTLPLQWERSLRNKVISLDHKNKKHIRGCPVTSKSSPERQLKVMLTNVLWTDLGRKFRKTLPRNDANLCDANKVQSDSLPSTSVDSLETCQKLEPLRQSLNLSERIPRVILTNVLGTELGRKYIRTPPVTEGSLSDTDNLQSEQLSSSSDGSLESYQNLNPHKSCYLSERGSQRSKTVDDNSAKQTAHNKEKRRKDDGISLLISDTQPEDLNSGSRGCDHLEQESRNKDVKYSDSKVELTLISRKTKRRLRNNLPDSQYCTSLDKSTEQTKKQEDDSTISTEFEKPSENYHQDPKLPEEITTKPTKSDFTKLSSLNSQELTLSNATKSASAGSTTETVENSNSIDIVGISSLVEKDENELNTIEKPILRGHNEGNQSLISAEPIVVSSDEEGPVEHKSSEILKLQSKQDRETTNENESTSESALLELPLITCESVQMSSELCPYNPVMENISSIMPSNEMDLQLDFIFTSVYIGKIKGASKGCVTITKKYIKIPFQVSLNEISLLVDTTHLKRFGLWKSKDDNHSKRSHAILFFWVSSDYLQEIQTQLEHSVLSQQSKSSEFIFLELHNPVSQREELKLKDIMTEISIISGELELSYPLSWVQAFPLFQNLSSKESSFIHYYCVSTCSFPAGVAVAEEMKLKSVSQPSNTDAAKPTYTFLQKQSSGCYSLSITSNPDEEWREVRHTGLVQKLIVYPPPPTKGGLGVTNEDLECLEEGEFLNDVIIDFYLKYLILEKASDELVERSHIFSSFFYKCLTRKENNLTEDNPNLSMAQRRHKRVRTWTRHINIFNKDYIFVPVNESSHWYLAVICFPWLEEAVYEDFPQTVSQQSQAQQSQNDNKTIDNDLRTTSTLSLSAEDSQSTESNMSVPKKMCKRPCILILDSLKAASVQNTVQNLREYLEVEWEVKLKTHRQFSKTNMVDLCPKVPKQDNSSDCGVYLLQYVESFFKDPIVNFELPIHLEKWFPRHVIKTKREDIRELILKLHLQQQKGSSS
As to the kind of experiment: SENP7 protease inhibitors, SAR follow-up, biochemical, luminescence (AID 504497). In kind it is functional.

In assay [6] the target is T5, Caspase-3 (Homo sapiens, UniProt P42574).
T5 sequence (P42574 whole entry): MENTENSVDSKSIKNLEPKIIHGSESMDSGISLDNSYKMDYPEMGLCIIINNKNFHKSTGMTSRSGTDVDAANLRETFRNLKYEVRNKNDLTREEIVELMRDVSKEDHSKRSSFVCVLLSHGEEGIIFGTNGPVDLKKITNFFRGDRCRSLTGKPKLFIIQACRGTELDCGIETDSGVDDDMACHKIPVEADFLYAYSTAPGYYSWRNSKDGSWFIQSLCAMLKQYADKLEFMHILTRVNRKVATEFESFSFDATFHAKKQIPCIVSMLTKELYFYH
Nature of the assay: SAR Analysis of small molecule inhibitors of Sentrin-specific proteases (SENPs) using a Caspase-3 Selectivity assay. [Related pubchem assays (depositor defined):AID2540, AID2599, AID434973, AID489001]. It counts as functional.

For assay [7], the target named is T3, Sentrin-specific protease 8. As to the kind of experiment: SENP8 protease inhibitors, SAR follow-up, biochemical, luminescence, set 2 (AID 588601). In kind it is functional.
Assay [8] addresses T4, Sentrin-specific protease 7. As to the kind of experiment: SENP7 protease inhibitors, SAR follow-up, biochemical, luminescence, set 2 (AID 588600). In kind it is functional.
Assay [9] has as its target T2, Sentrin-specific protease 6. As to the kind of experiment: SENP6 protease inhibitors, SAR follow-up, biochemical, luminescence, set 2 (AID 588598). In kind it is functional.
Assay [10] has as its target T5, Caspase-3. As to the kind of experiment: caspase-3 inhibitors as off-family protease, SAR follow-up, selectivity assay for SENP protease inhibitor project, biochemical, luminescence, set 2 (AID 588599). It counts as functional.
In assay [11] the target is Tyrosine-protein kinase receptor TYRO3 (Homo sapiens, UniProt Q06418). It counts as functional.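 Also: TYRO3 value obtained as one member of a kinome-wide profiling panel.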
Assay [12] deals with Dual specificity tyrosine-phosphorylation-regulated kinase 1B (Homo sapiens, UniProt Q9Y463). Nature of the assay: Navigating the Kinome. Panel member name: DYRK1B. In kind it is functional.
Assay [13] addresses Casein kinase I isoform alpha (Homo sapiens, UniProt P48729). In kind it is functional.
In assay [14] the target is Tyrosine-protein kinase ABL1 (Homo sapiens, UniProt P00519). It counts as functional.
Assay [15] concerns the target Insulin-like growth factor 1 receptor (Homo sapiens, UniProt P08069). As to the kind of experiment: Navigating the Kinome. Panel member name: IGF1R. It counts as functional.
The target of the next assay is Activin receptor type-1 (Homo sapiens, UniProt Q04771). Nature of the assay: Navigating the Kinome. Panel member name: ACVR1. In kind it is functional.

Activity calls are given as the source filed them.

Chain of Dual specificity tyrosine-phosphorylation-regulated kinase 1B (Q9Y463 whole entry, canonical isoform): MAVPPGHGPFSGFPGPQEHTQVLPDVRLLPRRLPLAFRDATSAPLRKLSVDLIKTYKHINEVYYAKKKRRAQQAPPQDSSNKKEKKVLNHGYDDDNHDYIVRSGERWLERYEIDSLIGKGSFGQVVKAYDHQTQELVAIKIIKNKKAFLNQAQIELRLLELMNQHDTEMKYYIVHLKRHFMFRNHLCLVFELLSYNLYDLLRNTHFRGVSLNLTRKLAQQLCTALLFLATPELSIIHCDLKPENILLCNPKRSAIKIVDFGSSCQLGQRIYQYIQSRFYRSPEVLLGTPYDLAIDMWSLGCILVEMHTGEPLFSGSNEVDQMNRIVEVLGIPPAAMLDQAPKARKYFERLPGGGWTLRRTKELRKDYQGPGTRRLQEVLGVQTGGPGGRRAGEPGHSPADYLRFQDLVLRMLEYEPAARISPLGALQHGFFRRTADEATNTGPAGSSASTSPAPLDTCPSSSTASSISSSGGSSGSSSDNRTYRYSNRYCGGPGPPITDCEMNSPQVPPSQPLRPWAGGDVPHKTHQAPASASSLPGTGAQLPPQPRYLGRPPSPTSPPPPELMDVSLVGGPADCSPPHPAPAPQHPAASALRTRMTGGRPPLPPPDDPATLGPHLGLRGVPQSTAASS
Chain of Aspartyl aminopeptidase (Q8I2J3 whole entry): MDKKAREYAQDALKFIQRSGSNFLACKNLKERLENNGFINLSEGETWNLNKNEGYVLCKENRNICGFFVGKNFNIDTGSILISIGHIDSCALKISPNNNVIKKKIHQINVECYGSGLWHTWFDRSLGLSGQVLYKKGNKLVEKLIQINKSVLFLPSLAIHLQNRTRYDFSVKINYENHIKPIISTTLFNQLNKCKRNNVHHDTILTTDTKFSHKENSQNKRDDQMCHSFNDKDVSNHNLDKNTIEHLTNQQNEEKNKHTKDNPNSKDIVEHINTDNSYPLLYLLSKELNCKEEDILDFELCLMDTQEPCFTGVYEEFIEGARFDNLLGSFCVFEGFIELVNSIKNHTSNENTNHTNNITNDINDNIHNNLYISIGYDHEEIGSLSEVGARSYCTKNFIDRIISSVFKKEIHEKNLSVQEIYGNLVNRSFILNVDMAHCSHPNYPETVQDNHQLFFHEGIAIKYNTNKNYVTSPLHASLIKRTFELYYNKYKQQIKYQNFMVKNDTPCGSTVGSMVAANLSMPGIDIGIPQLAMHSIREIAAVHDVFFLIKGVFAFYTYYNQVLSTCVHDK
Chain of Casein kinase I isoform alpha (P48729 whole entry, canonical isoform): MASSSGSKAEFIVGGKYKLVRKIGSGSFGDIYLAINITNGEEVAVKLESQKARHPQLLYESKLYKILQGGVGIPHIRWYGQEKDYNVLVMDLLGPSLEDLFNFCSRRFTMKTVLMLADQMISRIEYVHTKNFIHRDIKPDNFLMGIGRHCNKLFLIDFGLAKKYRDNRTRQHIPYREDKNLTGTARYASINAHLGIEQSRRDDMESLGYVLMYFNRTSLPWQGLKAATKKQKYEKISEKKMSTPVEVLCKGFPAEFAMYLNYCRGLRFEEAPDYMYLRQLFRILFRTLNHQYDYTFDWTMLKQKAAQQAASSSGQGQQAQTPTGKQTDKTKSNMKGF
Chain of Activin receptor type-1 (Q04771 whole entry): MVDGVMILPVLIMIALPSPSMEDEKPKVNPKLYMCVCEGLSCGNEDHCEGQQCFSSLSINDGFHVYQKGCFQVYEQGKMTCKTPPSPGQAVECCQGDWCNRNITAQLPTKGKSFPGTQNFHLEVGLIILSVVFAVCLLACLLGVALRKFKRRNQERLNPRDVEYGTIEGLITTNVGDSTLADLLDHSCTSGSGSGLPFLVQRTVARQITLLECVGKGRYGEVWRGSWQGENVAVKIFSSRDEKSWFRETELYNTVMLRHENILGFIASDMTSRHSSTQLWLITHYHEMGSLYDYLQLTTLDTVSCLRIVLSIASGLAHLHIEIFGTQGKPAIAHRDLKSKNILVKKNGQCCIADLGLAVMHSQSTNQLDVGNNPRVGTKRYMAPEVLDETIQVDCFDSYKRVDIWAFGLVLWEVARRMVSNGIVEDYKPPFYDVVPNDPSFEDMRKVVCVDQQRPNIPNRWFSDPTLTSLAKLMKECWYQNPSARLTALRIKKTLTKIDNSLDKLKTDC
Chain of Tyrosine-protein kinase ABL1 (P00519 whole entry): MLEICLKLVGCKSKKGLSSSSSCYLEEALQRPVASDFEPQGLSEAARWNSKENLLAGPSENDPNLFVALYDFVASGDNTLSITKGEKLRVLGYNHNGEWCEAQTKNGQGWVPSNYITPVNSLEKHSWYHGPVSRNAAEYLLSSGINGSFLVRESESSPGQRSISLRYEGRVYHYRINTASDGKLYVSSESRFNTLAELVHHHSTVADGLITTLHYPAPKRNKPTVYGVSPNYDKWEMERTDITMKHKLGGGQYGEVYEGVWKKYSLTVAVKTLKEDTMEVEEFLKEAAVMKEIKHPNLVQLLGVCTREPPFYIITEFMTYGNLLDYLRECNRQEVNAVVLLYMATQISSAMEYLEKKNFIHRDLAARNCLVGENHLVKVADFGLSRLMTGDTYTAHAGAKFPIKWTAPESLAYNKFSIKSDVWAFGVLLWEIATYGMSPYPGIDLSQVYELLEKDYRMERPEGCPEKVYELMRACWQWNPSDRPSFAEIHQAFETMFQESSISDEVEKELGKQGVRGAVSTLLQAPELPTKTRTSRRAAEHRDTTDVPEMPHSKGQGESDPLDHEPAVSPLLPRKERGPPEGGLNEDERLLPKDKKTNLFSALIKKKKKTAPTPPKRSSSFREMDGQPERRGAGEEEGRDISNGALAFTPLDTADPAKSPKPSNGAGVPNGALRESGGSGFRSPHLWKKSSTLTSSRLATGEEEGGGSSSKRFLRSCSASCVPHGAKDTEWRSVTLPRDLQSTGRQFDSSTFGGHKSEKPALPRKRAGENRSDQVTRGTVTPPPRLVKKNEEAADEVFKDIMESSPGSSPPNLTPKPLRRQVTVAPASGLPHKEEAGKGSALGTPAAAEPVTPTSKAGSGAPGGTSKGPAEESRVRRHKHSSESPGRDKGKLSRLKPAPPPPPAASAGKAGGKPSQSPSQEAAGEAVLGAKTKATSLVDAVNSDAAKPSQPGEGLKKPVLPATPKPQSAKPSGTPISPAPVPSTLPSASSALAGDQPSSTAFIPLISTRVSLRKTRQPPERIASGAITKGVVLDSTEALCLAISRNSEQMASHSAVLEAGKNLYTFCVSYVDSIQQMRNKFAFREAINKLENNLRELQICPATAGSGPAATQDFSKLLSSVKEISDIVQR
Chain of Multidrug resistance protein CDR1 (P43071 whole entry, looked up): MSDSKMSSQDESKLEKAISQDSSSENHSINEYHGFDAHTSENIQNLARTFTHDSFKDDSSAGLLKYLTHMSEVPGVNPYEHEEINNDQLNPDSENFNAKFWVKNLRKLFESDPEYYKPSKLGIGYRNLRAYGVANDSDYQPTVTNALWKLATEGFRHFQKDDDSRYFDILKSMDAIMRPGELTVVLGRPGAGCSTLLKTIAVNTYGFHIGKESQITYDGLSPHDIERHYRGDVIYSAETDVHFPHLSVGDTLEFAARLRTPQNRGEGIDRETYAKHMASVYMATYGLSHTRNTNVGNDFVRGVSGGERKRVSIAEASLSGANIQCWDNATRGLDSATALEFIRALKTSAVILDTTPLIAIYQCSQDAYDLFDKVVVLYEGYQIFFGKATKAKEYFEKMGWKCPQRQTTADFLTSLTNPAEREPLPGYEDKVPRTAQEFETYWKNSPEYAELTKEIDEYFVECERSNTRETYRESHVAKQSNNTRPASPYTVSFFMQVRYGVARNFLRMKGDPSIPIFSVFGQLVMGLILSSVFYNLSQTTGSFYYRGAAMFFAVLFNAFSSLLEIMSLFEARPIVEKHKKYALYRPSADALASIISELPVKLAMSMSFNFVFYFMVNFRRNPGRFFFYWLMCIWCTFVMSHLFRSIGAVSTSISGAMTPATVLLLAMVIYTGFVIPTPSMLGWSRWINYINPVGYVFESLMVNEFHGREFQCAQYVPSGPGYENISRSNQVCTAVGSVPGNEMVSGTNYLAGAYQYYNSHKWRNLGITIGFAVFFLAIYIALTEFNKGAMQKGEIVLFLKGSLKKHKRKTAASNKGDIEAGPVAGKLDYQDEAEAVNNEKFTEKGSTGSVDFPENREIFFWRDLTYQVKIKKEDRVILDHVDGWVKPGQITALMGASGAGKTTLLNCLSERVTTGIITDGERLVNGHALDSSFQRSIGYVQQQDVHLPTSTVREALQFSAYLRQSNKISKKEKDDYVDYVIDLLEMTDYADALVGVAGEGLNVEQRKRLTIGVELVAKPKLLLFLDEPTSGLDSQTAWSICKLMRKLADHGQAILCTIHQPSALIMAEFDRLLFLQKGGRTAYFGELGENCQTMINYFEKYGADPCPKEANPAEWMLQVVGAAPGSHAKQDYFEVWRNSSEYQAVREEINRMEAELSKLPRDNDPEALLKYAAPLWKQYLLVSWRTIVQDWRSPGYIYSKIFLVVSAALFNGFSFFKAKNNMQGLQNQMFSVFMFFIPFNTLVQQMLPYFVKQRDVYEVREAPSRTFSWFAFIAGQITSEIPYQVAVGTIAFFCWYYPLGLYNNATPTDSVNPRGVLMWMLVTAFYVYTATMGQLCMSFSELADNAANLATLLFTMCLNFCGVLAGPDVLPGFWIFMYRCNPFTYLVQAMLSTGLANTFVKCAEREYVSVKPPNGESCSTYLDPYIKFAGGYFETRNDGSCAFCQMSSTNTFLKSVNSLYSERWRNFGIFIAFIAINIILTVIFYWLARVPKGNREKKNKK
Chain of Procathepsin L (P07711 whole entry): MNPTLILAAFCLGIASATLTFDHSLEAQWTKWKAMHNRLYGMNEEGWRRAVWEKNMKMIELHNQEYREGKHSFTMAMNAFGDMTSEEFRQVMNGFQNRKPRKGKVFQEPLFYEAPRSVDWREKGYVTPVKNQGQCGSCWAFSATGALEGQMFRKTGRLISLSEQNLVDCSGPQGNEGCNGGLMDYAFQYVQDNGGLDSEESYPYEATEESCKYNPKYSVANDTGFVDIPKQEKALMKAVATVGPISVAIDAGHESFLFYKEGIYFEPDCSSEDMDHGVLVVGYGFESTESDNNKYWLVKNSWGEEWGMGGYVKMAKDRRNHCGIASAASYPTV

The term EC50 denotes the concentration needed to bring the measured effect to its halfway point. With `COC(=O)CCC(=O)Nc1sc2c(c1C#N)CCCC2`, the EC50 in [1] is 14 µM (active).
In general, IC50 refers to the concentration needed to halve the response being measured. Take `O=C1NC(=S)NC(=O)C1=Cc1cc2ccccc2[nH]1`: the IC50 on Aspartyl aminopeptidase is 1.67 µM (active); on Procathepsin L it was > 59.6 µM (not active). Moreover, the EC50 in [2] was 6 µM (active).
By AC50 is commonly meant the midpoint of the concentration-response curve, whichever way the signal moves. Turning to `COc1ccnc(N2CCN(C(=O)c3ccc(Cl)cc3)CC2)c1`, the figures for the AC50 in the assay on NIH3T3 and in the assay with Candida albicans were 96.1 µM (active) and 30.4 µM (active), respectively.
With `CC(C)C(=O)Nc1ccc(-c2nc3cc(Cl)ccc3o2)cc1`, the IC50 was > 99 µM (inactive) in assay [3], > 99 µM (inactive) in assay [4], 2.66 µM (active) in [5] and 23.7 µM (active) on Caspase-3 [6].
`O=C(NCC[S+]([O-])c1c(-c2ccc(F)cc2)[nH]c2ccccc12)C(=O)c1c[nH]c2ccccc12` (stereo unspecified): the IC50 in [7] was 84 µM (active); in [8], 88.8 µM (active); in assay [9], 94.5 µM (active); at Caspase-3 [10], 50.7 µM (active).
Broadly, the Ki is a dissociation constant, usually derived from enzyme kinetics or from competition with a known ligand. `NC(=O)c1ccccc1-c1ncc[nH]1`: the Ki in assay [11] was 79.4 µM (active); in assay [12] it was 63.1 µM (active); in assay [13], 50.1 µM (active).
With `CC(C)(C)c1nc2c3ccc(F)cc3c3c(=O)[nH]ccc3c2[nH]1`, the Ki in assay [12] was > 2.51 µM (inactive); in assay [14], > 2.51 µM (inactive); in assay [15], > 2.51 µM (inactive); at Activin receptor type-1, > 3.98 µM (inactive).
